In PMC8195987, “Structural basis for plazomicin antibiotic action and resistance” (Communications Biology, 2021):

Molecular target: T1, AAC(2′)-Ia (Providencia stuartii, UniProt Q52424)
T1 construct: synthetic gene in pET-15b, E. coli BL21(DE3); N-terminal His-tag removed with thrombin; homodimer
Test: X-ray crystal structure
Format: binding
Conditions: product complex with acetylated plazomicin, 1.95 Å; formed from acetyl-CoA during crystallization; active site

T1 sequence (Q52424 whole entry): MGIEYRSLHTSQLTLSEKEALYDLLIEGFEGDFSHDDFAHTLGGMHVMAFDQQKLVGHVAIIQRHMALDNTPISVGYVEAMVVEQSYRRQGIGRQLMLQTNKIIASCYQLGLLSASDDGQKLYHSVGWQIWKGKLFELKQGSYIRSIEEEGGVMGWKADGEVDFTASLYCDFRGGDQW

Structure (SMILES): CC(C)(COP(=O)(O)OP(=O)(O)OC[C@H]1O[C@@H](n2cnc3c(N)ncnc32)[C@H](O)[C@@H]1OP(=O)(O)O)[C@@H](O)C(=O)NCCC(=O)NCCS [CoA]
- X-ray crystal structure: identified the enzymatically modified plazomicin and CoA in the active site
